Laboratory results taken from ChEMBL document CHEMBL2029336, “S-Adenosylhomocysteine hydrolase of the protozoan parasite Trichomonas vaginalis: potent inhibitory activity of 9-(2-deoxy-2-fluoro-β,D-arabinofuranosyl)adenine” (Bioorg Med Chem Lett, 2012).
Activity calls are given as the source filed them. No cut-off for these calls is given here.

Key:
[1] = system: Trichomonas vaginalis; assay: Growth inhibition of Trichomonas vaginalis T1 at 100 uM after 24 hrs by hemocytometry; type: functional; settings: for inhibition of growth at 100 µM: T1, 24 h, read-out: GI
[2] = system: CHO-K1; assay: Cytotoxicity against CHOK1 cells assessed as morphological changes at 100 uM after 48 hrs by microscopy; type: cell-based, Cricetulus griseus; settings: chinese hamster, cho-k1, 48 h
[3] = system: Trichomonas vaginalis; assay: Growth inhibition of Trichomonas vaginalis T1 after 24 hrs by hemocytometry; type: functional, organism-based; settings: T1, 24 h
[4] = system: Trichomonas vaginalis; assay: Growth inhibition of mtronidazole-resistant Trichomonas vaginalis after 24 hrs by hemocytometry; type: functional, organism-based

Nc1ncnc2c1ncn2[C@@H]1O[C@H](COC(=O)c2ccccc2)[C@@H](O)[C@H]1O
inhibition of growth at 100 µM [1]: 13.5%

O=C(Nc1ncnc2c1ncn2[C@@H]1O[C@H](CCl)[C@@H](O)[C@H]1O)c1ccccc1
inhibition of growth at 100 µM [1]: 40.7%

O=c1ccn([C@@H]2O[C@H](CCl)[C@@H](O)[C@H]2O)c(=O)[nH]1
growth inhibition (GI) [1]: inactive

Nc1ncnc2c1ncn2[C@@H]1O[C@H](CO)[C@H]2O[C@H]21
inhibition of growth at 100 µM [1]: 43%

Nc1c2ncn([C@@H]3O[C@H](CO)[C@@H](O)[C@H]3O)c2nc[n+]1[O-]
inhibition of growth at 100 µM [1]: 37.7%

Nc1ncnc2c1ncn2[C@@H]1O[C@H](CO)[C@@H](O)[C@H]1O [ADENOSINE]
inhibition of growth at 100 µM [1]: 49.7%

Nc1ncnc2c1ncn2[C@@H]1O[C@H](CO)[C@@H](O)[C@@H]1F
inhibition of growth at 100 µM [1]: 99.6% | Activity [2]: Non-toxic | IC50 [3]: 0.09 µM | IC50 [4]: 100 µM

CC(C)CSC[C@H]1O[C@@H](n2cnc3c(N)ncnc32)[C@H](O)[C@@H]1O
inhibition of growth at 100 µM [1]: 44.9%

CCCSS[C@H]1[C@H](O)[C@@H](CO)O[C@H]1n1cnc2c(N)nc(N)nc21
inhibition of growth at 100 µM [1]: 6.2%

N[C@@H]1[C@H](O)[C@@H](CO)O[C@H]1n1ccc(=O)[nH]c1=O
inhibition of growth at 100 µM [1]: 18.4%

Cc1ncc([N+](=O)[O-])n1CCO [METRONIDAZOLE]
IC50 [4]: 0.21 µM

O=c1ccn([C@H]2C[C@H](O)[C@@H](CI)O2)c(=O)[nH]1
inhibition of growth at 100 µM [1]: 21.2%

Nc1ncnc2c1ncn2[C@@H]1O[C@H](CSc2ccc(Cl)cc2)[C@@H](O)[C@H]1O
inhibition of growth at 100 µM [1]: 51.2%

O=c1ccn([C@@H]2O[C@H](C=C(Br)Br)[C@@H](O)[C@H]2O)c(=O)[nH]1
inhibition of growth at 100 µM [1]: 12.2%

CC(=O)O[C@H]1[C@@H](O)[C@H](n2ccc(=O)[nH]c2=O)O[C@@H]1CO
inhibition of growth at 100 µM [1]: 22.8%

CCCSS[C@@H]1[C@H](O)[C@@H](CO)O[C@H]1n1cnc2c(N)ncnc21
inhibition of growth at 100 µM [1]: 43%

NC[C@H]1O[C@@H](n2cnc3c(NC(=O)c4ccccc4)ncnc32)[C@H](O)[C@@H]1O
inhibition of growth at 100 µM [1]: 21.7%

Nc1ncnc2c1ncn2[C@@H]1O[C@H](CO)[C@@H](F)[C@H]1O
inhibition of growth at 100 µM [1]: 100% | IC50 [3]: 1.61 µM

Nc1ncnc2c1ncn2[C@@H]1O[C@H](CO)[C@H](F)[C@H]1O
inhibition of growth at 100 µM [1]: 57.5%

Nc1ncnc2c1ncn2[C@@H]1O[C@H](CCl)[C@@H](O)[C@H]1O
inhibition of growth at 100 µM [1]: 88.9% | IC50 [3]: 53.3 µM

Nc1ncnc2c1ncn2[C@@H]1O[C@H](CO)C[C@H]1O [CORDYCEPIN]
inhibition of growth at 100 µM [1]: 94.1%

Nc1ncnc2c1ncn2[C@@H]1O[C@H](CO)[C@@H](O)[C@H]1F [2'-BETA-FLUORO-2',3'-DEOXYADENOSINE]
inhibition of growth at 100 µM [1]: 100% | IC50 [3]: 2.94 µM

COc1ccc(SC[C@H]2O[C@@H](n3cnc4c(N)ncnc43)[C@H](O)[C@@H]2O)cc1
inhibition of growth at 100 µM [1]: 58%

Nc1nc(N)c2ncn([C@@H]3O[C@H](CO)[C@@H](O)[C@H]3O)c2n1
inhibition of growth at 100 µM [1]: 100% | IC50 [3]: 29.5 µM

Nc1ncnc2c1ncn2[C@H]1C[C@H](O)[C@@H](CO)O1 [DEOXYADENOSINE]
inhibition of growth at 100 µM [1]: 48.7%

NC[C@H]1O[C@@H](n2cnc3c(N)ncnc32)[C@H](O)[C@@H]1O
inhibition of growth at 100 µM [1]: 24.1%

CCCSS[C@H]1[C@H](O)[C@@H](CO)O[C@H]1n1cnc2c(N)ncnc21
inhibition of growth at 100 µM [1]: 66.8%

Nc1ncnc2c1ncn2[C@@H]1O[C@H](CO)[C@@H](O)[C@@H]1Cl
inhibition of growth at 100 µM [1]: 100% | IC50 [3]: 5.93 µM

[N-]=[N+]=NC[C@H]1O[C@@H](n2cnc3c(N)ncnc32)[C@H](O)[C@@H]1O
inhibition of growth at 100 µM [1]: 85.2% | IC50 [3]: 48.5 µM

COc1ccc(SC[C@H]2O[C@@H](n3ccc(=O)[nH]c3=O)[C@H](O)[C@@H]2O)cc1
growth inhibition (GI) [1]: inactive

Nc1ncnc2c1ncn2[C@@H]1O[C@H](CO)[C@@H](O)[C@@H]1O [VIDARABINE]
inhibition of growth at 100 µM [1]: 100% | IC50 [3]: 3.6 µM

O=c1ccn([C@@H]2O[C@H](CSc3ccccc3)[C@@H](O)[C@H]2O)c(=O)[nH]1
growth inhibition (GI) [1]: inactive

O=c1[nH]cnc2c1ncn2[C@@H]1O[C@H](CO)[C@@H](O)[C@H]1O [INOSINE]
inhibition of growth at 100 µM [1]: 19.2%
